Experimental data taken from US12411128B2, “Methods and apparatuses for prediction of mechanism of activity of compounds” (The Regents of the University of California, priority 2017, dated 2025).

What was measured:
[1] = system: human ventricular cardiac tissue strips (hvCTS); assay: binary SVM cardioactivity index from hvCTS twitch force readouts; format: cell-based; conditions: for cardioactivity versus vehicle-treated hvCTS by binary SVM accuracy: over tested concentration range, Student's t-test with Bonferroni correction
Procedure: The binary SVM is capable of summarizing all parameters and providing a simple metric that expresses a compound's degree of cardioactivity at a given dosage (Lee et al., 2015). […] As a result, a SVM accuracy metric is calculated to reflect the machine's ability to identify a cardioactive effect (e.g. 75% accuracy means that out of 100 data points, the machine could correctly classify 75 of them). To account for variations within the data set, multiple runs are performed to calculate the mean SVM accuracy. […] Prominent cardioactive effects allow the space between the data from treated and control conditions to become more distinguishable, leading to a higher SVM accuracy with 100% being the maximum.
Although the hvCTSs (FIG. 3, A) were examined under temperature-controlled conditions, there was an observable drift in contractile behavior of the vehicle-treated hvCTSs. For example, the relative measured maximum developed force increased for all pacing frequencies by a cumulative average of 16.96±0.83% upon the ninth serial addition (FIG. 3, B). To account and normalize for baseline drift, each drug condition was compared to its respective vehicle condition via binary SVM (e.g., measurements of the 7th serial drug addition were compared to those of vehicle-treated hvCTSs at the 7th serial addition). To establish a benchmark of non-cardioactivity, a subset of the vehicle-treated hvCTSs were randomly selected to model a non-cardioactive compound. Binary SVM was then performed between the subset and a corresponding control group of equal size (n).
Human ventricular cardiomyocytes were differentiated from a hES2 stem cell line with a Wnt inhibitor-based protocol as previously described (Weng et al., 2014). Human ventricular cardiac tissue strips (hvCTS) were then formed by mixing cardiomyocytes (100 k cells per strip) at 14-16 days post differentiation with a solution of bovine collagen I (2 mg/mL), Matrigel (0.9 mg/mL), and human foreskin fibroblasts (100 k cells per strip) as previously described (Turnbull et al., 2014). The cell-matrix solution (100 uL per tissue strip) was injected into a custom PDMS force-sensing bioreactor device and placed in an incubator (37° C. and 5% CO2). Formed hvCTSs were fed DMEM with 10% new born calf serum, 1% penicillin-streptomycin and 0.1% amphotericin B. The PDMS device contains two flexible vertical end-posts to which the tissue anchors, causing the posts to deflect as the tissue beats. Contractile force measurements were captured with a high speed (100 fps) CCD camera while custom LabVIEW software tracked the centroid movement of the flexible post tips. Force was converted from the deflection of the PDMS posts by an elastic beam bending equation (Serrao et al., 2012). […]

[2] = system: human ventricular cardiac tissue strips (hvCTS); assay: class relationship metrics: binary SVM with Gaussian fit between 'unknown' and library compound; format: cell-based; conditions: for Estimated Similar Concentration of digoxin: ouabain at 1.0 × 10^−5 M
Procedure: Once the drug classes were predicted, the concentrations of library compounds that induced the most similar cardioactive effects as the ‘unknown’ compounds were computed (FIG. 7; protocol in Example 5).
The concentration of a library compound that induced the most similar cardioactive effects as the compound of interest was determined. This class relationship metric was computed by first selecting the compound of interest at a desired concentration and performing a series of binary SVM among the tested range of a library compound. For each concentration of the library compound, the closer the SVM accuracy was to 50%, the more defined boundaries of the compounds overlapped and the more similar the cardioactive effects were. This relationship between SVM accuracy and tested concentration range was presumed to behave in a Gaussian manner with the centroid representing the concentration that would elicit the most similar effects. The Gaussian fit was set with 50% as the lower limit and the highest achieved SVM accuracy as the upper limit. If the original SVM accuracies reached the 50% mark and remained around this value for subsequent concentrations, only the first concentration to reach the 50% was included in the fit to accurately model one side of the Gaussian curve.

[3] = system: human ventricular cardiac tissue strips (hvCTS); assay: individual contractile force parameters of electrically paced hvCTS; conditions: for change of duration of relaxation phase / change of max force: increasing concentration up to 10^−4 M (100 μM)
From the text: Each of the compounds, with the exception of aspirin, belonged to one of five classes with each class comprising a minimum of two compounds. Aspirin functioned as a reference for a cardiac-neutral compound. […] The parameters include: • 1. Desired pacing frequency. • 2. Captured pacing frequency. • 3. Max force generated (amplitude). • 4. […] Max change of force over time ([…]F/[…]t) of contraction phase. • 9. Max change of force over time ([…]F/[…]t) of relaxation phase. • 10. Duration of rise from 50% cutoff to max force. • 11. Duration of decline from max force to 50% cutoff. • 12. Area under the curve of rise from 50% cutoff to max force. • 13. Area under the curve of decline from max force to 50% cutoff. • 14. […] Area under the curve of rise from 50% cutoff to max force. • 17. Area under the curve of decline from max force to 50% cutoff.
The cell-matrix solution (100 uL per tissue strip) was injected into a custom PDMS force-sensing bioreactor device and placed in an incubator (37° C. and 5% CO2). Formed hvCTSs were fed DMEM with 10% new born calf serum, 1% penicillin-streptomycin and 0.1% amphotericin B. The PDMS device contains two flexible vertical end-posts to which the tissue anchors, causing the posts to deflect as the tissue beats. Contractile force measurements were captured with a high speed (100 fps) CCD camera while custom LabVIEW software tracked the centroid movement of the flexible post tips. […] A custom MATLAB script was used to calculate 17 parameters that described the overall shape of the force traces for each contractile event (FIG. 1). Each contraction was regarded as an individual data point for the machine learning analysis.
After 7-8 days post tissue formation, hvCTS were exposed to drugs for pharmacodynamic analysis. Flecainide, lisinopril, norepinephrine and ramipril were provided by Pfizer, while all other compounds were purchased form Sigma-Aldrich. Compounds were initially resuspended in DMSO and subsequently diluted in water for final concentrations composed of less than 0.1% (vol/vol) DMSO. The PDMS device containing the hvCTS was placed onto a heated stage (37° C.) under a dissecting microscope. Before either vehicle or drug addition, the media was replaced with DMEM containing high glucose (4.5 g/L) and HEPES without phenol red. Drug doses were added to a tissue in consecutively increasing manner up to 10 concentrations with 3 minutes in between measurements. Vehicle doses containing only water were applied similarly. A pulse stimulator (AMPI Master-9) connected to platinum wires electrically paced the hvCTS with a monophasic electric field of 5 V/cm with a 10 ms pulse duration.
SVM accuracies of strips exposed to a drug condition were compared to those of the non-cardioactive benchmark by using Student's t-test (desired a value of 0.05) with a Bonferroni correction (m, number of tests or hypotheses, was dependent on the number of drug additions in a screen). […] The Bonferroni correction was also applied when examining changes in specific parameters.

CC(=O)Oc1ccccc1C(=O)O [Aspirin]
SVM accuracy, average among all serial additions ([1]; binary SVM vs vehicle-treated hvCTS, 10 nM to 100 μM, n=6): 52.85±1.77% | cardioactivity versus vehicle-treated hvCTS by binary SVM accuracy [1]: non-cardioactivity

COc1cc(N)c(Cl)cc1C(=O)NC1CCN(CCCOc2ccc(F)cc2)CC1OC (stereo not shown) [Cisapride]
Estimated Similar Concentration of flecainide ([2]; cisapride at 1.0 × 10^−4 M, centroid of Gaussian fit): Flecainide (1.03 × 10^−5) M | change of duration of relaxation phase ([3]; paced at 0.5 Hz): increased | change of max force ([3]; paced at 0.5 Hz): decreased

C[C@H]1O[C@@H](O[C@H]2[C@@H](O)C[C@H](O[C@H]3[C@@H](O)C[C@H](O[C@H]4CC[C@@]5(C)[C@H](CC[C@@H]6[C@@H]5C[C@@H](O)[C@]5(C)[C@@H](C7=CC(=O)OC7)CC[C@]65O)C4)O[C@@H]3C)O[C@@H]2C)C[C@H](O)[C@@H]1O [Digoxin]
change of duration of relaxation phase ([3]; paced at 0.5 Hz): increase in duration of relaxation phase | change of max force ([3]; paced at 0.5 Hz): decrease in max force

CC(C)NCC(O)c1ccc(O)c(O)c1 (stereo not shown) [Isoproterenol]
decrease of duration of the relaxation phase (time from maximum developed force to 95% cutoff) ([3]; 10 μM): 22.19±19.35% | increase in maximum developed force ([3]; 10 μM, paced at 0.5 Hz): 10.42±16.23% | duration of the relaxation phase versus the vehicle study (lusitropic effect) ([3]; paced at 0.5 Hz, 3.0×10^−7 to 10^−5 M, n=10): decreased significantly | inotropic effect ([3]; paced hvCTS (nifedipine 1 Hz; isoproterenol 10 μM, 0.5 Hz)): negligible inotropic effects

NCCCC[C@H](N[C@@H](CCc1ccccc1)C(=O)O)C(=O)N1CCC[C@H]1C(=O)O [Lisinopril]
cardioactivity versus vehicle-treated hvCTS by binary SVM accuracy [1]: did not have detectable cardioactive effects

COCC(=O)O[C@]1(CCN(C)CCCc2nc3ccccc3[nH]2)CCc2cc(F)ccc2[C@@H]1C(C)C [Mibefradil]
Estimated Similar Concentration of nifedipine ([2]; mibefradil at 3.0 × 10^−6 M, centroid of Gaussian fit): Nifedipine (1.28 × 10^−7) M

NC[C@H](O)c1ccc(O)c(O)c1 [Norepinephrine]
Estimated Similar Concentration of isoproterenol ([2]; norepinephrine at 1.0 × 10^−5 M, centroid of Gaussian fit): (1.44 × 10^−6) M

C[C@@H]1O[C@@H](O[C@H]2C[C@@H](O)[C@]3(CO)[C@H]4[C@H](O)C[C@]5(C)[C@@H](C6=CC(=O)OC6)CC[C@]5(O)[C@@H]4CC[C@]3(O)C2)[C@H](O)[C@H](O)[C@H]1O [Ouabain]
fold lower concentration than digoxin to achieve the same level of cardioactivity ([2]; ouabain 1.0×10^−5 M vs digoxin 5.35×10^−5 M): approximately 5 fold | Estimated Similar Concentration of digoxin ([2]; centroid of Gaussian fit): Digoxin (5.35 × 10^−5) M | Estimated Similar Concentration of digoxin ([2]; centroid of Gaussian fit, listed as ouabain): 53.5 µM | treated strips that stopped beating at all pacing frequencies ([3]; 100 μM): 4 of the 10

CCOC(=O)[C@H](CCc1ccccc1)N[C@@H](C)C(=O)N1[C@H](C(=O)O)C[C@@H]2CCC[C@@H]21 [Ramipril]
cardioactivity versus vehicle-treated hvCTS by binary SVM accuracy [1]: did not have detectable cardioactive effects
